The values below come from patent US20240408140A1, “ENHANCING ANTICANCER FUNCTION OF NATURAL KILLER CELL THROUGH REGULATION OF ANTIOXIDANT MECHANISM” (priority 2021, published 2024).

The test system of this data set is Yac-1 cell line. Description: Cytotoxicity of NK cells cultured in NK cell activation medium including antioxidants, co-culture with Yac-1 cells. The settings on record: mouse spleen NK cells cultured 30-60 minutes in medium with 1 mM N-acetylcysteine or 0.5 mM TEMPOL; compared with normal NK cells (control) (FIG. 6).

Protocol: NK cell activation media were prepared as follows. In an NK cell culture medium obtained by mixing 10% FBS, 1× penicillin/streptomycin, 1× glutamax, 1× HEPES, 0.5 mM sodium pyruvate, 50 μM 2-mercaptoethanol, and 50 ng/ml interleukin-2 (IL-2) in RPMI1640 medium, 1 mM N-acetylcysteine or 0.5 mM 4-hydroxy-2,2,6,6-tetramethylpiperidine 1-oxyl (TEMPOL) was blended.
The Yac-1 cell line was added in RPMI1640 (10% FBS/RPMI1640) medium including 10% FBS, treated with 5 μg/ml Calcein AM (Invitrogen, C1430), and cultured for 1 hour in a cell culture machine at 37° C. in the presence of 5% carbon dioxide conditions to label with fluorescence. Afterwards, the NK cells and fluorescence-labeled Yac-1 cells were mixed in a ratio of 10:1, 5:1, and 1:1 and dispensed in a round bottom 96-well plate (SPL, #34096). Additionally, fluorescence-labeled Yac-1 cells were also dispensed into the wells of the maximum (Maximum, 10% FBS/RPMI1640 including 2% Triton X-100) and minimum (Minimum, 10% FBS/RPMI1640) to calculate the cytotoxicity rate. […] After culture for 4 hours, the medium was mixed well and centrifuged at 100×g for 5 minutes, the supernatant was transferred to a black plate (SPL, #30296), and fluorescence was measured using a fluorescence microplate reader. […]
Cytotoxicity=[(Test fluorescence−minimum fluorescence)/(maximum fluorescence−minimum fluorescence)]×100 [Equation 1] […]

Regarding `CC1(C)CC(O)CC(C)(C)N1[O]` [Tempol, 4-hydroxy-2,2,6,6-tetramethylpiperidine 1-oxyl], the cytotoxicity entry is on record as “higher cytotoxicity than normal NK cells”.
